US11155514B1, “Pleuromulin acitretin ester with antibacterial activity and a method of preparing the same” (SHAANXI UNIVERSITY OF SCIENCE AND TECHNOLOGY, priority 2020, dated 2021)
Values after ≈ are worked out from the molar mass of the structure shown. Read-outs that look alike come from different tables or passages of the source.

Columns and labels:
Assay type in all cases: cell-based
drug-resistant bacteria = experiment: Antibacterial activity test, summary over all experimental strains; details: text summary of FIG. 1-2 and Table 1
Method: (§1) The minimal inhibitory concentration (MIC) of the compounds was determined by a microbroth dilution method with gentamicin, cefazolin sodium and ceftriaxone sodium as positive controls.
(§2) The experimental strains included methicillin-resistant Gram-positive bacteria: methicillin-resistant Staphylococcus aureus MRSA 18-222, 18-575; multiple drug-resistant Gram-negative bacteria: […], multidrug-resistant Pseudomonas aeruginosa MDR-PA 18-174,18-202, carbapenem-resistant Acinetobacter baumannii CR-AB 18-183,18-560. All the experimental strains were donated by Huashan Hospital affiliated to Fudan University (Institute of antibiotics, Fudan University) and used after routine identification.
(§3) Preparation of Test Strains:
(§4) Preparation of MHB medium: 20.0 g MHB medium was added to 1 L distilled water, boiled until completely dissolved, packed in conical bottles and sterilized at 121° C. for 15 min.
The experimental strain was cultured to the logarithmic growth phase: under aseptic condition, the experimental strain was inoculated into 100 mL MHB medium and incubated in a constant temperature and humidity incubator at 37° C. for 20-22 hours. […]

[1] = test system: vancomycin-resistant enterococci VRE 18-80; experiment: MIC by microbroth dilution, VRE 18-80; details: for MIC: Enterococcus, read-out: Minimum bacteriostatic concentration (MIC)
Method: as §1, §2, §3, §4
(§5) The experimental strain was cultured to the logarithmic growth phase: under aseptic condition, the experimental strain was inoculated into 100 mL MHB medium and incubated in a constant temperature and humidity incubator at 37° C. for 20-22 hours.
(§6) Preparation of storage solution: weigh the sample to be tested, dissolve it with 1% DMSO solution, prepare a storage solution with a concentration of 2560 μg/mL, weigh a positive reference substance, dissolve it with aseptic distilled water, and configure a storage solution with a concentration of 2560 μg/mL.
(§7) Preparation of bacterial suspension: under aseptic condition, the experimental strains cultured to logarithmic growth phase were adjusted to 0.5 MCF turbidity standard with MHB medium and diluted according to 1:10, and the bacterial suspension with concentration of 10^6 CFU/mL was prepared for standby.
(§8) Stock solution dilution and inoculation of experimental strains: under aseptic conditions, dilute the stock solution to a solution of 256 μg/mL. Take a sterile 96-well plate, add 100 μL of MHB medium to each well except for the first and second wells; add 100 μL of positive control solution to the first well, and add 100 μL of compound sample solution to the second and third wells; Mix the sample solution in the 3 wells with the medium, and then pipet 100 μL to the 4th well, and then pipet 100 μL to the 5th well after mixing, and then dilute to the 9th well in a series of times, and draw 100 μL from the 9th well and discard, the 10th well is a growth control without drugs; then, add 100 μL of the above-prepared bacterial suspension to each well to make the final bacterial concentration of each well 5×10^5 CFU/mL; so far, the positive control concentration is 128 μg/mL, the concentration of the sample solution is 128, 64, 32, 16, 8, 4, 2, 1 μg/mL.
(§9) Incubation: Cover the 96-well plate inoculated with the experimental strains, and incubate in a constant temperature and humidity box at 37° C. for 20-22 hours.

[2] = test system: multidrug-resistant Pseudomonas aeruginosa MDR-PA 18-202; experiment: MIC by microbroth dilution, MDR-PA 18-202
Method: as §1, §2, §3, §4, §5, §6, §7, §8, §9
(§10) In FIGS. 1-2, the ten wells represent ten groups, from left to right, positive, 128 μg/mL, 64 μg/mL, 32 μg/mL, 16 μg/mL, 8 μg/mL, 4 μg/mL, 2 μg/mL, 1 μg/mL, Negative.

[3] = test system: methicillin-resistant Staphylococcus aureus MRSA 18-222; experiment: MIC by microbroth dilution, MRSA 18-222; details: for MIC: Staphylococcus aureus, read-out: Minimum bacteriostatic concentration (MIC)
Method: as §1, §2, §3, §4, §5, §6, §7, §8, §9

[4] = test system: carbapenem-resistant Acinetobacter baumannii CR-AB 18-183; experiment: MIC by microbroth dilution, CR-AB 18-183; details: for MIC: Acinetobacter baumannii, read-out: Minimum bacteriostatic concentration (MIC)
Method: as §1, §2, §3, §4, §5, §6, §7, §8, §9

[5] = test system: methicillin-resistant Staphylococcus aureus MRSA 18-575; experiment: MIC by microbroth dilution, MRSA 18-575
Method: as §1, §2, §3, §4, §5, §6, §7, §8, §9, §10

[6] = test system: multidrug-resistant Pseudomonas aeruginosa MDR-PA 18-174; experiment: MIC by microbroth dilution, MDR-PA 18-174; details: for MIC: Pseudomonas aeruginosa, read-out: Minimum bacteriostatic concentration (MIC)
Method: as §1, §2, §3, §4, §5, §6, §7, §8, §9

[7] = test system: carbapenem-resistant Acinetobacter baumannii CR-AB 18-560; experiment: MIC by microbroth dilution, CR-AB 18-560; details: for MIC: Acinetobacter baumannii, read-out: Minimum bacteriostatic concentration (MIC)
Method: as §1, §2, §3, §4, §5, §6, §7, §8, §9

[8] = test system: vancomycin-resistant enterococci VRE 18-94; experiment: MIC by microbroth dilution, VRE 18-94; details: for MIC: Enterococcus, read-out: Minimum bacteriostatic concentration (MIC)
Method: as §1, §2, §3, §4, §5, §6, §7, §8, §9

[9] = strain VRE 18-80, 37° C., 20-22 hours
[10] = Pseudomonas aeruginosa, strain MDR-PA 18-202, 37° C., 20-22 hours, read-out: Minimum bacteriostatic concentration (MIC)
[11] = strain MRSA 18-222, 37° C., 20-22 hours
[12] = strain CR-AB 18-183, 37° C., 20-22 hours
[13] = Staphylococcus aureus, strain MRSA 18-575, 37° C., 20-22 hours, read-out: Minimum bacteriostatic concentration (MIC)
[14] = strain MDR-PA 18-174, 37° C., 20-22 hours
[15] = strain CR-AB 18-560, 37° C., 20-22 hours
[16] = strain VRE 18-94, 37° C., 20-22 hours

Row | Molecule | inhibitory effect on drug-resistant bacteria (drug-resistant bacteria) | MIC [1, 9] [µg/mL] | MIC [2, 10] [µg/mL] | MIC [3, 11] [µg/mL] | MIC [4, 12] [µg/mL] | MIC [5, 13] [µg/mL] | MIC [6, 14] [µg/mL] | MIC [7, 15] [µg/mL] | MIC [8, 16] [µg/mL] | also measured
1 | COc1cc(C)c(/C=C/C(C)=C/C=C/C(C)=C/C(=O)O)c(C)c1C [Acitretin] | no inhibitory effect | – | – | – | – | – | – | – | – | MIC ([1]; VRE): > 128 µg/mL; MIC ([2]; Pseudomonas aeruginosa, read-out: Minimum bacteriostatic concentration (MIC)): > 128 µg/mL; MIC ([3]; MRSA): > 128 µg/mL; MIC [4]: > 128 µg/mL; MIC ([5]; Staphylococcus aureus, MRSA, read-out: Minimum bacteriostatic concentration (MIC)): > 128 µg/mL; MIC [6]: > 128 µg/mL; MIC [7]: > 128 µg/mL; MIC ([8]; VRE): > 128 µg/mL
2 | C=C[C@]1(C)C[C@@H](OC(=O)CO)[C@]2(C)[C@H](C)CC[C@]3(CCC(=O)[C@H]32)[C@@H](C)[C@@H]1O [Pleuromulin] | no inhibitory effect | > 128 | > 128 | > 128 | > 128 | > 128 | > 128 | > 128 | > 128 | –
3 | CO/N=C(\C(=O)N[C@@H]1C(=O)N2C(C(=O)O)=C(CSc3nc(=O)c(=O)[nH]n3C)CS[C@H]12)c1csc(N)n1 [Ceftriaxone sodium] | – | 8 | 16 | > 128 | > 128 | > 128 | 128 | > 128 | > 128 | –
4 | Cc1nnc(SCC2=C(C(=O)O)N3C(=O)[C@@H](NC(=O)Cn4cnnn4)[C@H]3SC2)s1 [Cefazolin sodium] | – | 32 | 128 | > 128 | > 128 | > 128 | 8 | > 128 | > 128 | –
5 | C=C[C@]1(C)C[C@@H](OC(=O)COC(=O)/C=C(C)/C=C/C=C(C)/C=C/c2c(C)cc(OC)c(C)c2C)[C@]2(C)CC[C@@H](C)C3(CCC(=O)[C@H]32)[C@@H](C)[C@@H]1O [Pleuromulin acitretinester, (2E,4E,6E,8E)-2-(((4R,5S,6S,8R,9R,9aR,12R)-5-hydroxy-4,6,9,12-tetramethyl-1-oxo-6-vinyldecahydro-3a,9-propanocyclopenta[8]annulen-8-yl)oxy)-2-oxoethyl 9-(4-methoxy-2,3,6-trimethylphenyl)-3,7-dimethylnona-2,4,6,8-tetraenoate] | – | > 128 | 128 (≈ 186 µM) | > 128 | > 128 | 64 (≈ 93.2 µM) | > 128 | > 128 | > 128 | MIC ([2]; multi-drug resistant Pseudomonas aeruginosa MDR-PA, strain not named, read-out: MIC): 128 µg/mL (≈ 186 µM); MIC ([5]; multi-drug resistant Staphylococcus aureus MRSA, strain not named, read-out: MIC): 64 µg/mL (≈ 93.2 µM)
6 | Gentamicin | – | – | – | – | – | – | – | – | – | Minimum bacteriostatic concentration (MIC) [1, 9]: 0.0625 µg/mL; Minimum bacteriostatic concentration (MIC) ([2]; strain MDR-PA 18-202, 37° C., 20-22 hours): 0.0625 µg/mL; Minimum bacteriostatic concentration (MIC) [3, 11]: 128 µg/mL; Minimum bacteriostatic concentration (MIC) [4, 12]: >128 µg/mL; Minimum bacteriostatic concentration (MIC) ([5]; strain MRSA 18-575, 37° C., 20-22 hours): 2 µg/mL; Minimum bacteriostatic concentration (MIC) [6, 14]: 0.0625 µg/mL; Minimum bacteriostatic concentration (MIC) [7, 15]: >128 µg/mL; Minimum bacteriostatic concentration (MIC) [8, 16]: >128 µg/mL
